# Tested on: Human liver cancer-derived cell line (HuH-7)
# Assay: miRNA released into serum-free culture medium from HuH-7 cells treated with carbon tetrachloride (real-time PCR)
# Type: cell-based
# Details: carbon tetrachloride 0-1000 μM, 7-day culture in serum-free maintenance medium, FIG. 2
# Method: Human liver cancer-derived cell line (HuH-7, purchased from ATCC) was seeded in a culture vessel of 12-well culture plate at a cell density of 20000 cells/cm^2, and cells were cultured for 7 days in a serum-free maintenance medium containing carbon tetrachloride, which was known to injure liver tissue and liver cells, at a relatively low concentration of 0-1000 μM used in World J Gastroenterol. 2008 Jun. 21; 14(23):3693-709. The maintenance medium used herein was the same as one used in Example 1.
# Each culture medium was collected after 7-day culturing, and cells were removed by filtration through a 0.22 μm filter to obtain samples.
# cDNA samples of Poly(A)miRNA samples were obtained in the same manner as in Example 1.
# Real-time PCR was carried out using Platinum SYBR Green (produced by Invitrogen) to measure hsa-miR-21, hsa-miR-122, hsa-miR-451 and hsa-miR-16 contained in the cDNA samples. The primers used were as follows.
structure (smiles),measurement,value
ClC(Cl)(Cl)Cl [carbon tetrachloride],"amount of miRNA released from cells into culture medium (hsa-miR-21, hsa-miR-122, hsa-miR-451, hsa-miR-16)",increased

# — patent US20120178085A1, “METHOD FOR EVALUATION OF CULTURED CELLS, AND METHOD FOR SCREENING OF BIOMARKER” (priority 2009, published 2012)
